Experimental data published in patent US20240124455A1, “TRICYCLIC COMPOUNDS AS ANTICANCER AGENTS” (JINGRUI BIOPHARMA CO., LTD., priority 2021, published 2024).

Key:
BRD4 (BD1) = biological target: T1, BRD4 (BD1) (Homo sapiens, UniProt O60885); experiment: BRD4 (BD1) binding assay (HTRF); settings: BRD4 (D1) with GST tag and biotin-labeled acetylated peptide
T1 construct: purchased Reaction Biology Company RD-11-157
Experimental: The BRD4 (BD1) biochemical binding assay was carried out by Sundia MediTech Co., Ltd. • Materials and suppliers: • BRD4(D1): Reaction Biology Company; catalog #: RD-11-157; batch #1319 • Positive control compound: AZD5153; Selleck, catalog #, S8344, batch #, 1 • Peptide: GL China; catalog #329934; batch #, P171229-JQ329934 • DMSO: Sigma; catalog #, D8418-1L; batch #, SHBG3288V • OptiPlate-384: PerkinElmer; catalog #6007270, batch #, 8240-17211 • Instruments: • Centrifuge (manufacturer: Eppendorf, model: 5430) • Microplate reader (manufacturer: Perkin Elmer, model: EnVision) • Sonic pipetting system (manufacturer: Labcyte, model: Echo® 550) • In the assay, the HTRF method uses an anti-GST antibody with a cryptate chelate-labeled europium element as the donor, and the d2 or XL665-labeled streptavidin (having high affinity with biotin) as the acceptor to study the interaction between BRD4 (D1) with GST tag and biotin-labeled acetylated peptide. When the donor and acceptor are close to each other due to the binding of BRD4 (D1) to the biotin-labeled peptide, the excitation of the donor triggers fluorescence resonance energy transfer (FRET) to the acceptor, which then emits fluorescence at a specific wavelength (665 nm). • General assay procedure: 20 nL of compound solution was transferred to the 384-well plate by Labcyte Echo® 550 liquid handler, and 5 μL of BRD4 (BD1) solution from Reaction Biology Company, RD-11-157, or the assay buffer was added to each well. After centrifuge for 1 minute and incubating 15 minutes at rt, the 5 μL peptide (GL China, Catalog #329934, Batch, P171229-JQ329934) was added to each well. After centrifuge for 1 minute at 1000 rpm, 10 μL detect solution was added to each well. After incubating for 60 minutes, centrifuging 1 minute, the signals were measured by Microplate reader. Data analysis: The inhibition percentage in the presence of the compound was calculated based on the following formula:
% Inhibition=(Signal_max−Signal sample/Signal_max−Signal_min)×100
Fitting the data in GrphaPad Prism V5.0 software with log(inhibitor) vs. response-Variable slope, the IC50 was obtained.

MV-4-11 = experiment: Cell proliferation assay (Cell Titer-Glo); assay type: cell-based; settings: MV-4-11 cells, compound treatment 72 h, CellTiter-Glo
Experimental: In order to evaluate the activity of the compound on cells, the Cell Titer-Glo assay was used for detection. The cells were incubated in a 37° C. incubator and treated with compounds for 72 hours. At the end of the reaction, the number of living cells in the culture is measured by quantitative determination of ATP. ATP is an indicator of the metabolism of living cells. With Cell Titer-Glo, the luminescence signal produced by cell lysis is proportional to the amount of ATP present, and the amount of ATP is directly proportional to the number of cells in the culture. These signal ratios reflect the cell activity of the compound at that concentration in the well under this condition. • (1) Seeding cells • Trypsinize cells and count cell density with the automated cell counter. • Dilute cell suspension to required density according to seeding density. • Seed 100 ul cells into 96-well plate in growth medium according to the plate map. Medium only is used as background control (Min). • Incubate at 37° C., 5% CO2 overnight. • (2) Compound treatment • Make 200× compound solution in DMSO. • Dilute compounds with growth medium to 3× final concentration by addition of 3 ul 200× compounds to 197 ul growth medium. • Add 50 ul diluted compounds to cells and incubate at 37° C., 5% CO2 for 72 h. • (3) Measurement • Equilibrate the assay plate to room temperature prior to measurement. • Add 40 ul of CellTiter-Glo® Reagent into each well. • Mix contents for 2 minutes on an orbital shaker to induce cell lysis. • Incubate at room temperature for 60 minutes to stabilize luminescent signal. • Record luminescence on Envision. • (4) Data analysis • (1) Using GraphPad Prism 5. • (2) % Inh=(Max signal−Compound signal)/(Max signal−Min signal)×100. • (3) Max signal was obtained from the action of DMSO. • (4) Min signal was obtained from the action of medium only.

IC50 (BRD4 (BD1)) | IC50 (MV-4-11) | IC50 (MV-4-11; Homo sapiens, MV4-11, 72 h) | SMILES
0.53 nM | 1.77 nM |  | [2H]C([2H])([2H])n1nc2c3ncc(-c4c(C)nnn4C)cc3n(C(c3ncccc3F)C3CCOCC3)c2c1C(C)(C)O (racemic) [Example 14, 2-(6-(1,4-Dimethyl-1H-1,2,3-triazol-5-yl)-4-((3-fluoropyridin-2-yl)(tetrahydro-2H-pyran-4-yl)methyl)-2-(methyl-d3)-2,4-dihydropyrazolo[3′,4′:4,5]pyrrolo[3,2-b]pyridin-3-yl)propan-2-ol]
6.8 nM | 63.3 nM |  | Cc1nnn(C)c1-c1cnc2c3nn(C)c(C(C)(C)O)c3n(C(c3ncccc3F)C3CCOCC3)c2c1 (single isomer, unassigned) [Example 11, 2-(6-(1,4-Dimethyl-1H-1,2,3-triazol-5-yl)-4-((3-fluoropyridin-2-yl)(tetrahydro-2H-pyran-4-yl)methyl)-2-methyl-2,4-dihydropyrazolo[3′,4′:4,5]pyrrolo[3,2-b]pyridin-3-yl)propan-2-ol]
0.51 nM |  | 1.52 nM | COC(=O)c1c2c(nn1C)c1ncc(-c3c(C)nnn3C)cc1n2C(c1ncccc1F)C1CCOCC1 (centres unmarked) [Example 9, Methyl 6-(1,4-dimethyl-1H-1,2,3-triazol-5-yl)-4-((3-fluoropyridin-2-yl)(tetrahydro-2H-pyran-4-yl)methyl)-2-methyl-2,4-dihydropyrazolo[3′,4′:4,5]pyrrolo[3,2-b]pyridine-3-carboxylate]
0.61 nM |  | 3.42 nM | Cc1nnn(C)c1-c1cnc2c3nn(C)c(C(C)(C)O)c3n(C(c3ncccc3F)C3CCOCC3)c2c1 (racemic) [Example 10, 2-(6-(1,4-Dimethyl-1H-1,2,3-triazol-5-yl)-4-((3-fluoropyridin-2-yl)(tetrahydro-2H-pyran-4-yl)methyl)-2-methyl-2,4-dihydropyrazolo[3′,4′:4,5]pyrrolo[3,2-b]pyridin-3-yl)propan-2-ol]
0.52 nM | 1.94 nM |  | [2H]C([2H])([2H])c1nnn(C)c1-c1cnc2c3nn(C)c(C(C)(C)O)c3n(C(c3ncccc3F)C3CCOCC3)c2c1 (racemic) [Example 18, 2-(4-((3-Fluoropyridin-2-yl)(tetrahydro-2H-pyran-4-yl)methyl)-2-methyl-6-(1-methyl-4-(methyl-d3)-1H-1,2,3-triazol-5-yl)-2,4-dihydropyrazolo[3′,4′:4,5]pyrrolo[3,2-b]pyridin-3-yl)propan-2-ol]
0.18 nM |  | 0.75 nM | Cc1nnn(C)c1-c1cnc2c3nn(C)c(C(C)(C)O)c3n([C@H](c3ccccn3)C3CCOCC3)c2c1 [Example 8]
0.59 nM |  | 3.3 nM | [2H]C([2H])([2H])c1nnn(C)c1-c1cnc2c3nn(C)c(C(=O)OC)c3n(C(c3ncccc3F)C3CCOCC3)c2c1 (centres unmarked) [Example 17, Methyl 4-((3-fluoropyridin-2-yl)(tetrahydro-2H-pyran-4-yl)methyl)-2-methyl-6-(1-methyl-4-(methyl-d3)-1H-1,2,3-triazol-5-yl)-2,4-dihydropyrazolo[3′,4′:4,5]pyrrolo[3,2-b]pyridine-3-carboxylate]
0.34 nM | 1.4 nM |  | [2H]C([2H])([2H])c1nnn(C)c1-c1cnc2c3nn(C([2H])([2H])[2H])c(C(C)(C)O)c3n(C(c3ncccc3F)C3CCOCC3)c2c1 (racemic) [Example 22, 2-(4-((3-Fluoropyridin-2-yl)(tetrahydro-2H-pyran-4-yl)methyl)-2-(methyl-d3)-6-(1-methyl-4-(methyl-d3)-1H-1,2,3-triazol-5-yl)-2,4-dihydropyrazolo[3′,4′:4,5]pyrrolo[3,2-b]pyridin-3-yl)propan-2-ol]
1.8 nM | 36.9 nM |  | Cc1nnn(C)c1-c1cnc2c3nn(C)c(C(C)(C)O)c3n(C(c3ccccc3)C3CCOCC3)c2c1 (single isomer, unassigned) [Example 3, 2-(6-(1,4-Dimethyl-1H-1,2,3-triazol-5-yl)-2-methyl-4-(phenyl(tetrahydro-2H-pyran-4-yl)methyl)-2,4-dihydropyrazolo[3′,4′:4,5]pyrrolo[3,2-b]pyridin-3-yl)propan-2-ol]
8.4 nM |  | 139 nM | Cc1nnn(C)c1-c1cnc2c3nn(C)c(C(C)(C)O)c3n([C@@H](c3ccccn3)C3CCOCC3)c2c1 [Example 7]
4.8 nM | 72.2 nM |  | [2H]C([2H])([2H])n1nc2c3ncc(-c4c(C)nnn4C)cc3n(C(c3ncccc3F)C3CCOCC3)c2c1C(C)(C)O (single isomer, unassigned) [Example 15, 2-(6-(1,4-Dimethyl-1H-1,2,3-triazol-5-yl)-4-((3-fluoropyridin-2-yl)(tetrahydro-2H-pyran-4-yl)methyl)-2-(methyl-d3)-2,4-dihydropyrazolo[3′,4′:4,5]pyrrolo[3,2-b]pyridin-3-yl)propan-2-ol]
0.18 nM | 1.28 nM |  | Cc1nnn(C)c1-c1cnc2c3nn(C)c(C(C)(C)O)c3n(C(c3ccccc3)C3CCOCC3)c2c1 (single isomer, unassigned) [Example 4, 2-(6-(1,4-Dimethyl-1H-1,2,3-triazol-5-yl)-2-methyl-4-(phenyl(tetrahydro-2H-pyran-4-yl)methyl)-2,4-dihydropyrazolo[3′,4′:4,5]pyrrolo[3,2-b]pyridin-3-yl)propan-2-ol]
0.61 nM |  | 1.98 nM | Cc1nnn(C)c1-c1cnc2c3nn(C)c(C(C)(C)O)c3n(C(c3ccccn3)C3CCOCC3)c2c1 (racemic) [Example 6]
4.4 nM | 66.8 nM |  | [2H]C([2H])([2H])c1nnn(C)c1-c1cnc2c3nn(C([2H])([2H])[2H])c(C(C)(C)O)c3n(C(c3ncccc3F)C3CCOCC3)c2c1 (single isomer, unassigned) [Example 23, 2-(4-((3-Fluoropyridin-2-yl)(tetrahydro-2H-pyran-4-yl)methyl)-2-(methyl-d3)-6-(1-methyl-4-(methyl-d3)-1H-1,2,3-triazol-5-yl)-2,4-dihydropyrazolo[3′,4′:4,5]pyrrolo[3,2-b]pyridin-3-yl)propan-2-ol]
0.17 nM | 0.47 nM |  | [2H]C([2H])([2H])c1nnn(C)c1-c1cnc2c3nn(C([2H])([2H])[2H])c(C(C)(C)O)c3n(C(c3ncccc3F)C3CCOCC3)c2c1 (single isomer, unassigned) [Example 24, 2-(4-((3-Fluoropyridin-2-yl)(tetrahydro-2H-pyran-4-yl)methyl)-2-(methyl-d3)-6-(1-methyl-4-(methyl-d3)-1H-1,2,3-triazol-5-yl)-2,4-dihydropyrazolo[3′,4′:4,5]pyrrolo[3,2-b]pyridin-3-yl)propan-2-ol]
0.3 nM |  | 1.48 nM | Cc1nnn(C)c1-c1cnc2c3nn(C)c(C(C)(C)O)c3n(C(c3ccccc3)C3CCOCC3)c2c1 (racemic) [Example 2, 2-(6-(1,4-Dimethyl-1H-1,2,3-triazol-5-yl)-2-methyl-4-(phenyl(tetrahydro-2H-pyran-4-yl)methyl)-2,4-dihydropyrazolo[3′,4′:4,5]pyrrolo[3,2-b]pyridin-3-yl)propan-2-ol]
